Values after ≈ are worked out from the molar mass of the structure shown.
Key:
[1] = system: polyclonal Ab 2 (antibody to chrysoidine, from Hapten 2); test: indirect competitive ELISA (icELISA) with polyclonal Ab 2; format: binding, New Zealand white rabbits; conditions: for Cross-reactivity / IC50: polyclonal Ab 2, coating antigen Hapten 1-OVA; for Cross-reactivity: CR = IC50(chrysoidine)/IC50(interferent) x 100
Description: Specificity of the optimized assay was tested by measuring the cross-reactivity using a group of structurally related dyes. Twenty-four compounds were selected for testing the cross-reactivity (CR) (Table 1). The CR was calculated as follows: CR(%) = [IC50(chrysoidine) / IC50(interferent)] × 100.

[2] = system: polyclonal Ab 2 (antibody to chrysoidine, from Hapten 2); test: as above; format: binding, New Zealand white rabbits; conditions: coating antigen Hapten 2-OVA 17 ng/mL, Ab 2 dilution 10000 (homologous)
[3] = system: Ab 1 (antibody to chrysoidine, from Hapten 1); test: indirect competitive ELISA (icELISA) with polyclonal Ab 1
Description: Checkerboard assays, in which antibodies were titrated against various amounts of the coating antigen, were used to measure the reactivity of antibodies and to select an appropriate antigen coating and antibody dilutions for competitive indirect assays. […] The concentrations of the antibodies and the coating antigen chosen were further optimized.
The procedure for the competitive assay was as follows. Microtiter plates were coated with hapten-OVA (100–1000 ng/mL, 100 µL/well) in carbonate-bicarbonate buffer (50 mM, pH 9.6) by overnight incubation at 4 °C. The plates were blocked with blocking solution by incubation for 3 h. Serial dilution of the analyte in methanol-PBST (1:9, v:v, 50 µL/well) were added, followed by 50 µL/well of antibody diluted (1/1,000–1/10,000) with PBST solution. After incubation for about 30–60 min, 100 µL/well of a diluted (1/10,000) goat anti-rabbit IgG-HRP was added. The mixture was incubated for 60 min, and 100 µL/well of a TMB solution was added. The reaction was stopped after an appropriate time (typically 8 min) by adding 10% (v:v) H2SO4 (50 µL), and the absorbance was read at 450 nm.

[4] = coating antigen Hapten 1-OVA 20 ng/mL, Ab 2 dilution 4000 (heterologous)
[5] = coating antigen Hapten 1-OVA 20 ng/mL, Ab 1 dilution 8000 (homologous)
[6] = coating antigen Hapten 2-OVA 20 ng/mL, Ab 1 dilution 20000 (heterologous)

IC50 ([1]; class symbol ND)	Compound	Cross-reactivity [1]	other results
> 13.3 µM	O=[N+]([O-])c1ccc(N=Nc2c(O)ccc3ccccc23)cc1 [1-(4-nitrophenyl-azo)-2-naphthol]	≤0.01%	–
–	O=C(O)C1=NN(c2ccc(S(=O)(=O)O)cc2)C(=O)C1/N=N/c1ccc(S(=O)(=O)O)cc1 (centres unmarked) [Acid Yellow 23]	0.04%	IC50 [1]: 3.05 µM
> 13.3 µM	COc1cc(S(=O)(=O)O)c(C)cc1/N=N/c1c(O)ccc2cc(S(=O)(=O)O)ccc12 [Allura Red]	≤0.01%	–
> 13.3 µM	O=S(=O)(O)c1ccc2c(/N=N/c3ccc(S(=O)(=O)O)c4ccccc34)c(O)c(S(=O)(=O)O)cc2c1 [Amaranth]	≤0.01%	–
–	CN(C)c1ccc(C(=N)c2ccc(N(C)C)cc2)cc1 [Auramine O]	0.2%	IC50 [1]: 0.798 µM
> 13.3 µM	O=S(=O)(O)c1ccc(/N=N/c2cc(S(=O)(=O)O)c3ccccc3c2O)c2ccccc12 [Azorubine]	≤0.01%	–
> 13.3 µM	CCN(Cc1cccc(S(=O)(=O)O)c1)c1ccc(C(=C2C=CC(=[N+](CC)Cc3cccc(S(=O)(=O)O)c3)C=C2)c2ccc(O)cc2S(=O)(=O)[O-])cc1 [Brilliant blue-85]	≤0.01%	–
> 13.3 µM	Cc1c(C(=O)O)c(O)cc2c1C(=O)c1c(O)c([C@@H]3O[C@H](CO)[C@@H](O)[C@H](O)[C@H]3O)c(O)c(O)c1C2=O [Carminic acid]	≤0.01%	–
–	Nc1ccc(/N=N/c2ccccc2)c(N)c1 [Chrysoidine]	100.0%	IC50 (50% inhibitory concentration) [1, 4]: 0.33 ng/mL (≈ 0.00155 µM); LOD (10% inhibitory concentration) [1, 4]: 0.04 ng/mL; LOD (10% inhibitory concentration) ([1]; coating antigen Hapten 1-OVA 20 ng/mL, Ab 2 dilution 4000 (heterologous), listed as chrysoidine): ≤ 0.04 ng/mL; limit of quantitation (LOQ, 20%-80% inhibitory concentration) ([1]; coating antigen Hapten 1-OVA, Ab 2 (heterologous)): 0.09 to 4.9 ng/mL; IC50 [1]: 0.00133 µM; IC50 [2]: 10.6 ng/mL (≈ 0.0499 µM); LOD (10% inhibitory concentration) [2]: 3.8 ng/mL; IC50 [3, 5]: 7.4 ng/mL (≈ 0.0349 µM); LOD (10% inhibitory concentration) [3, 5]: 0.8 ng/mL; IC50 [3, 6]: 1.6 ng/mL (≈ 0.00754 µM); LOD (10% inhibitory concentration) [3, 6]: 0.4 ng/mL
> 13.3 µM	O=C1OC2(c3ccccc31)c1cc(I)c(O)c(I)c1Oc1c2cc(I)c(O)c1I [Erythrosine]	≤0.01%	–
–	Nc1ccc(N=Nc2ccc(C(=O)O)cc2)c(N)c1 [Hapten1, 4-((2,4-Diaminophenyl)diazenyl)benzoic acid]	169.8%	IC50 [1]: 0.00078 µM; Cross-reactivity ([1]; listed as Hapten 1): 170%
–	Nc1ccc(N=Nc2ccc(CC(=O)O)cc2)c(N)c1 [Hapten2, 2-(4-((2,4-Diaminophenyl)diazenyl)phenyl)acetic acid]	127.0%	IC50 [1]: 0.00105 µM; Cross-reactivity ([1]; listed as Hapten 2): 127%
> 13.3 µM	O=C1/C(=C2\Nc3ccccc3C2=O)Nc2ccccc21 [Indigo]	≤0.01%	–
> 13.3 µM	Nc1nc(N)nc(N)n1 [Melamine]	≤0.01%	–
> 13.3 µM	O=S(=O)(O)c1ccc(/N=N/c2ccc(Nc3ccccc3)cc2)cc1 [Orange yellow]	≤0.01%	–
–	O=S(=O)(O)c1ccc(/N=N/c2ccc(O)c3ccccc23)cc1 [Orangeim]	0.1%	IC50 [1]: 1.12 µM; Cross-reactivity ([1]; listed as orangeim): 0.12%
> 13.3 µM	O=C1OC2(c3ccc(Cl)cc3Oc3cc(Cl)ccc32)c2ccccc21 [Reddish orange]	≤0.01%	–
> 13.3 µM	Oc1ccc2ccccc2c1/N=N/c1ccccc1 [Sudan Red I]	≤0.01%	–
> 13.3 µM	O=S(=O)(O)c1ccc(/N=N/c2c(O)ccc3cc(S(=O)(=O)O)ccc23)cc1 [Sunset yellow]	≤0.01%	–
> 13.3 µM	O=C(O)C1=NN(c2ccc(S(=O)(=O)O)cc2)C(=O)C1/N=N/c1ccc(S(=O)(=O)O)cc1 (centres unmarked) [Tartrazine]	≤0.01%	–
> 13.3 µM	Acid Red 94	≤0.01%	–
> 13.3 µM	Carmine	≤0.01%	–

Compound	IC50 ([1]; class symbol ND)	Cross-reactivity [1]	other results
Cc1ccc([N+](=O)[O-])cc1N [Scarlet Base G]	> 13.3 µM	≤0.01%	–
